Like-named read-outs stand apart in the source and are kept apart here.
Experiments:
foot tapping in gerbils = experiment: Gerbil Foot-Tapping; type: in vivo, Mongolian gerbil; settings: Meriones unguiculatus, iv, i.v.
Description: CNS-penetrant NK-1 receptor antagonists for use in the present invention can be identified by their ability to inhibit foot tapping in gerbils induced by anxiogenic agents (such as pentagastrin) or central infusion of NK-1 receptor agonists such as GR73632, or caused by aversive stimulation such as foot shock or single housing, based on the method of Rupniak & Williams, Eur. J. Pharmacol., 1994, 265, 179. […] Alternatively, test compounds may be administered orally or by subcutaneous or intraperitoneal routes. A skin incision is then made in the midline of the scalp to expose the skull. An anxiogenic agent (e.g. pentagastrin) or a selective NK-1 receptor agonist (e.g. GR73632 ([…] ]-substance P-(7-11)) is infused directly into the cerebral ventricles (e.g. 3 pmol in 5 μl i.c.v., depending on test substance) by vertical insertion of a cuffed 27 gauge needle to a depth of 4.5 mm below bregma. The scalp incision is closed and the animal allowed to recover from anaesthesia in a clear perspex observation box (approximately 25 cm×20 cm×20 cm). The duration and/or intensity of hind foot tapping is then recorded continuously for approximately 5 minutes. Alternatively, the ability of test compounds to inhibit foot tapping evoked by aversive stimulation, such as foot shock or single housing, may be studied using a similar method of quantification.

[1] = system: separation-induced vocalisations in guinea-pig pups; experiment: Separation-Induced Vocalisation in guinea-pig pups; type: in vivo; settings: for ED50: Cavia porcellus, read-out: guinea-pig vocalisation ID50; for attenuation of separation-induced vocalisations compared with baseline: 30 minutes previously
Description: Male and female guinea-pigs pups are housed in family groups with their mothers and littermates throughout the study. Experiments are commenced […] when the pups are at least 2 weeks old. Before entering an experiment, the pups may be screened to ensure that a vigorous vocalisation response is reproducibly elicited following maternal separation. The pups are placed individually in an observation cage (approximately 55 cm×39 cm×19 cm) in a room physically isolated from the home cage for approximately 15 minutes and the duration and/or number of vocalisation during this baseline period is recorded. […] On test days each pup receives an oral dose or an s.c. or i.p. injection of test compound or vehicle and is then immediately returned to the home cage with its mother and siblings for at least 30 to 60 minutes (or for up to 4 hours following an oral dose, dependent upon the oral pharmacokinetics of the test compound) before social isolation for 15 minutes as described above. The duration and/or number of vocalisation on drug treatment days may be expressed as a percentage of the pre-treatment baseline value for each animal or compared with values obtained in vehicle-treated animals. The same subjects may be retested once weekly for up to 6 weeks. Between 6 and 8 animals receive each test compound at each dose tested.
(v) Determine activity of compounds in assays sensitive to conventional serotonergic drugs (inhibition of pharmacologically evoked foot tapping in gerbils and/or inhibition of distress vocalisations in guinea-pig pups (Assay 4)).

[2] = system: cisplatin-induced emesis in ferrets; experiment: Ferret Emesis (cisplatin-induced); type: in vivo; settings: Mustela putorius, po, read-out: ferret emesis ID90
Protocol: Ten minutes later they are fed with approximately 100 g of tinned cat food. At 60 minutes following oral dosing, cisplatin (10 mg/kg) is given i.v. via a jugular vein catheter inserted under a brief period of halothane anaesthesia. The catheter is then removed, the jugular vein ligated and the skin incision closed. The ferrets recover rapidly from the anaesthetic and are mobile within 10-20 minutes. The animals are observed continuously during recovery from the anaesthetic and for 4 hours following the cisplatin injection, after which time the animals are killed humanely. The numbers of retches and vomits occurring during the 4 hours after cisplatin administration are recorded by trained observers.

[3] = 5 min, read-out: gerbil foot-tapping (5 mins.) ID50
[4] = 24 hrs., read-out: gerbil foot-tapping (24 hrs.) ID50

C[C@@H](O[C@H]1OCCN(Cc2n[nH]c(=O)[nH]2)[C@H]1c1ccc(F)cc1)c1cc(C(F)(F)F)cc(C(F)(F)F)c1 [2-(R)-(1-(R)-(3,5-bis(trifluoromethyl)phenyl)-ethoxy)-3-(S)-(4-fluorophenyl)-4-(3-(5-oxo-1H,4H-1,2,4-triazolo)methyl)-morpholine]
ED50 (foot tapping in gerbils; [3]): 0.36 mg/kg
ED50 (foot tapping in gerbils; [4]): 0.33 mg/kg
ED50 ([1]; po, 4 hrs. pretreatment): 0.73 mg/kg
ED90 [2]: < 3 mg/kg

C[C@@H](O[C@H]1OCCN(Cc2nn[nH]c2CN(C)C)[C@H]1c1ccccc1)c1cc(C(F)(F)F)cc(C(F)(F)F)c1 [Test Compound A, 2-(R)-(1-(R)-(3,5-bis(trifluoromethyl)phenyl)ethoxy)-4-(5-(dimethylamino)methyl-1,2,3-triazol-4-yl)methyl-3-(S)-phenylmorpholine]
ED50 (foot tapping in gerbils; [3]): 0.12 mg/kg
ED50 (foot tapping in gerbils; [4]): 0.17 mg/kg
attenuation of separation-induced vocalisations compared with baseline ([1]; 0.25 mg/kg s.c. alone): approximately 25%
ED50 ([1]; sc): 0.5 mg/kg

C[C@@H](O[C@@H]1OCCN(Cc2nn[nH]c2CN(C)C)[C@@H]1c1ccccc1)c1cc(C(F)(F)F)cc(C(F)(F)F)c1 [Test Compound B, 2-(S)-(1-(R)-(3,5-bis(trifluoromethyl)phenyl)ethoxy)-4-(5-(dimethylamino)methyl-1,2,3-triazol-4-yl)methyl-3-(R)-phenylmorpholine, reference compound]
attenuation of separation-induced vocalisations, administered alone ([1]; 0.25 mg/kg s.c. alone (FIG. 1)): failure of the less active enantiomer, Test Compound B (0.25 mg/kg s.c.) to attenuate separation-induced vocalisations when administered alone

CNCCC(Oc1ccc(C(F)(F)F)cc1)c1ccccc1 (stereo not shown) [fluoxetine, reference compound]
attenuation of separation-induced vocalisations compared with baseline ([1]; 2 mg/kg i.p. alone): approximately 25%

Reference: US6162805A, “Use of an NK-1 receptor antagonist and an SSRI for treating obesity” (Merck Sharp & Dohme Limited, priority 1997, dated 2000)
